From US20250195453A1, “NOVEL ANTIBIOTIC WITH QUORUM SENSING INHIBITOR ACTIVITY” (priority 2022, published 2025)

Tests used:
C. violaceum = assay: Viability assay (resazurin) of C. violaceum in parallel to quorum sensing assay; type: cell-based, Chromobacterium violaceum; conditions: assays in parallel with the quorum sensing assays
Description: To ascertain that reduced OD562 signal is due to inhibition of quorum sensing and not merely due to reduced viability of bacteria, a viability assay may be done in parallel to the quorum sensing assay. To assess viability of bacteria, C. violaceum bacteria are grown o/n at 27° C. in TSB medium. The bacteria are diluted 1000× in TSB medium and grown until OD600=0.5-0.7. The bacteria are resuspended in TSB medium containing compound and incubated at 27° C. for 20 h. Bacteria are collected by centrifugation for 10 min at 3000 rpm. Supernatant is aspirated and resazurin (150 μg/mL in physiological salt solution) is added. Plates are incubated for another 45 min at 27° C. and fluorescence is measured by excitation at 540 nm and emission at 590 nm. If the fluorescent signal is less than 70% of the fluorescent signal of control untreated bacteria, the sample is scored as having an effect on viability of the bacteria.
C. violaceum bacteria were grown o/n in tryptic soy broth at 27° C. The bacteria were diluted in TSB and grown until OD600=0.5-0.7. […] The plates were centrifuged again for 10 min at 3000 rpm and 100 μL of the supernatant containing the violacein was transferred to a new 96-well plate and the violacein production was quantified by measuring the OD562 on an ASYS expert plus microplate reader. […]

WT-GFP = type: cell-based, Pseudomonas aeruginosa (PAO1); conditions: funalenone concentrations up to 500 μM
Description: (§1) Quorum sensing activity in PAO1 cells can be assessed by a the person skilled in the art, preferably by a quorum sensing reporter assay as exemplified herein. PAO1 reporters express green fluorescent protein under the control of the lasB promoter, the rhlA promoter, the pqsA promoter or a constitutive promoter, PA1/04/03. Reporter bacteria are inoculated in AB minimal media supplemented with 0.5% glucose and 0.5% casamino acids. Cultures are diluted in physiological salt solution to an OD450=0.1-0.2 before addition to AB medium with a range of concentrations of compound. The GFP fluorescence (excitation 485 nm, emission 535 nm) and absorbance (600 nm) are determined every 15 min for 15 h at 34° C. IC50 values are calculated based on the maximum slope of GFP/OD. If the IC50 on reporter lines is less than half of the IC50 on control bacteria, the compound is scored as quorum sensing inhibitor.
(§2) To test the potential of paecilomycone as quorum sensing inhibitor in more clinically relevant bacteria, the effect on P. aeruginosa (PAO1) was tested. […] To correct for potential effects on bacterial growth, the OD600 was determined in parallel with GFP fluorescence intensity and RFU/OD was plotted.

rhlA-GFP reporter = assay: PAO1 quorum sensing reporter assay, rhlA-GFP; type: cell-based, Pseudomonas aeruginosa (PAO1); conditions: funalenone concentrations up to 500 μM
Description: as §1, §2

pqsA-GFP reporter = assay: PAO1 quorum sensing reporter assay, pqsA-GFP; type: cell-based, Pseudomonas aeruginosa (PAO1); conditions: funalenone concentrations up to 500 μM
Description: as §1, §2

lasB-GFP reporter = assay: PAO1 quorum sensing reporter assay, lasB-GFP; type: cell-based, Pseudomonas aeruginosa (PAO1); conditions: funalenone concentrations up to 500 μM
Description: as §1, §2

[1] = test system: violacein production in C. violaceum; assay: Quorum sensing assay: violacein production in C. violaceum; type: cell-based, Chromobacterium violaceum; conditions: funalenone up to 1 mM
Description: C. violaceum bacteria were grown o/n in tryptic soy broth at 27° C. The bacteria were diluted in TSB and grown until OD600=0.5-0.7. Bacteria were diluted 1:1000 and 50 μL bacterial suspension was transferred to 96-well plates containing 50 μL fungal filtrate, extract or purified compound in a range of concentrations. […] Plates were incubated for 20 h at 27° C. while shaking at 180 rpm. Plates were centrifuged for 10 min at 3000 rpm to precipitate the violacein. Supernatant was aspirated and the pellet was resuspended in 200 μL 96% ethanol. The plates were centrifuged again for 10 min at 3000 rpm and 100 μL of the supernatant containing the violacein was transferred to a new 96-well plate and the violacein production was quantified by measuring the OD562 on an ASYS expert plus microplate reader.

For `COC1=C(O)c2c(O)cc(C)c3c(O)cc(O)c(c23)C1=O` [funalenone], the “Effect on cell viability of C. violaceum” value (C. violaceum) was “did not affect cell viability”, the “Effect on control WT-GFP reporter” value (WT-GFP) was “no effects on quorum sensing” and the “Effect on quorum sensing, rhlA-GFP reporter” value (rhlA-GFP reporter) was “no effects on quorum sensing”. The “Effect on quorum sensing, pqsA-GFP reporter” value (pqsA-GFP reporter) was “no effects on quorum sensing”, the “Effect on quorum sensing, lasB-GFP reporter” value (lasB-GFP reporter) was “no effects on quorum sensing” and the “Inhibition of violacein production” value [1] was “did not inhibit violacein production”.
